Results reported in patent US5607927A, “Cephalosporin derivative” (Meiji Seika Kaisha, Ltd., priority 1992, dated 1997).
Values after ≈ are worked out from the molar mass of the structure shown.

Legend:
E. coli NIHJ JC-2 = assay: minimum growth inhibitory concentration, ordinary serial dilution technique; format: cell-based; settings: Escherichia coli, NIHJJC2, 10^6 CFU/ml, 35° C., 18 to 20 hours
Procedure: (§1) In this test example, antibacterial activities of the following typical examples of the compound (I) of the present invention upon various bacterial species are illustrated by showing their minimum growth inhibitory concentrations measured by the ordinary serial dilution technique. The measurement was made by inoculating 10^6 CFU/ml of each test strain on a Sensitivity Plate Medium N (Nissui Pharmaceutical Co., Ltd.) and culturing the inoculated cells at 35° C. for 18 to 20 hours.

K. pneumoniae PCI 602 = assay: as above; format: cell-based; settings: Klebsiella pneumoniae, PCI602, 10^6 CFU/ml, 35° C., 18 to 20 hours
Procedure: as §1

M. morganii 1510/S-l = assay: as above; format: cell-based; settings: Morganella morganii, 1510/SL, 10^6 CFU/ml, 35° C., 18 to 20 hours
Procedure: as §1

P. vulgaris GN 76 = assay: as above; format: cell-based; settings: Proteus vulgaris, GN76, 10^6 CFU/ml, 35° C., 18 to 20 hours
Procedure: as §1

Sta. aureus 209P JC-1 = assay: as above; format: cell-based; settings: Staphylococcus aureus, 10^6 CFU/ml, Sensitivity Plate Medium N, 35° C., 18 to 20 hours
Procedure: as §1

[1] = tested on: Sta. epidermidis ATCC 14990; assay: as above; format: cell-based; settings: Staphylococcus epidermidis, ATCC14990, 10^6 CFU/ml, 35° C., 18 to 20 hours
Procedure: as §1

[2] = tested on: Sta. aureus M 126 (methicillin-resistant); assay: as above; format: cell-based; settings: Staphylococcus aureus, 10^6 CFU/ml, 35° C., 18 to 20 hours
Procedure: as §1, with “hours. Test Compounds:” for “hours.”
(§2) Note: (*), methicillinresistant Staphylococcus aureus

[3] = tested on: Sta. aureus M 133 (methicillin-resistant); assay: as above; format: cell-based; settings: Staphylococcus aureus, 10^6 CFU/ml, 35° C., 18 to 20 hours
Procedure: as §1, with “hours. Test Compounds:” for “hours.”
as §2

[4] = concentration in blood after subcutaneous injection (serum concentration by HPLC); format: in vivo; settings: sc, ICR mice, male, 0.5 mg per mouse subcutaneous; for Cmax: 4 weeks old, serum by HPLC, read-out: Maximum concentration in blood; for half-life / AUC: serum, Gauss-Newton method; for half-life: read-out: Half-life period (converted); for AUC: sampling 5 minutes to 2 hours, read-out: AUC (area under the plasma concentration-time curve)
Procedure: This test example illustrates that the following typical examples of the compound of the present invention can give and maintain their concentrations in blood at high levels after subcutaneous injection. Test Compounds:
The test was carried out in the following manner. Using five male mice of ICR line (4 weeks old, 1 individual/group for blood collection), 0.5 mg of each test compound dissolved in 0.2 ml of sterile water for injection use was administered to each mouse by subcutaneous injection. Blood collection was carried out after 5 minutes, 15 minutes, 30 minutes, 1 hour and 2 hours after the administration. Each of the thus collected blood samples was subjected to ordinary post-treatment, and then serum concentration of the cephem compound was measured by making use of HPLC. Half-life period and AUC (area under the plasma concentration-time curve) as pharmacokinetic parameters were calculated in accordance with the Gauss-Newton method.

[5] = acute toxicity (LD50) i.v. in mice; settings: mouse, in vivo, iv

SMILES | MIC (E. coli NIHJ JC-2) | MIC (K. pneumoniae PCI 602) | MIC (M. morganii 1510/S-l) | MIC (P. vulgaris GN 76) | MIC (Sta. aureus 209P JC-1) | MIC [1] | MIC [2] | MIC [3] | Cmax [4] | half-life [4] | AUC [4] | LD50 [5]
CO/N=C(\C(=O)NC1C(=O)N2C(C(=O)O)=C(Sc3nc4cccnc4s3)CS[C@H]12)c1nsc(N)n1 (some centres unmarked) [Compound B, 7-{(Z)-2-(5-amino-1,2,4-thiadiazol-3-yl)-2-methoxyiminoacetamido}-3-(thiazolo[5,4-b]pyridin-2-yl)thio-3-cephem-4-carboxylic acid] | 3.13 µg/mL (≈ 5.68 µM) | 3.13 µg/mL (≈ 5.68 µM) | 50 µg/mL (≈ 90.8 µM) | 12.5 µg/mL (≈ 22.7 µM) | 0.78 µg/mL (≈ 1.42 µM) | 0.39 µg/mL (≈ 0.708 µM) | 12.5 µg/mL (≈ 22.7 µM) | 3.13 µg/mL (≈ 5.68 µM) | 110 µg/mL | 1.3 h | 230 µg·h/mL | –
CO/N=C(\C(=O)NC1C(=O)N2C(C(=O)O)=C(Sc3nc4ccccc4s3)CS[C@H]12)c1nsc(N)n1 (some centres unmarked) [Compound A, 7-{(Z)-2-(5-amino-1,2,4-thiadiazol-3-yl)-2-methoxyiminoacetamido}-3-(benzothiazol-2-yl)thio-3-cephem-4-carboxylic acid] | 3.13 µg/mL (≈ 5.69 µM) | 3.13 µg/mL (≈ 5.69 µM) | 1.56 µg/mL (≈ 2.84 µM) | 3.13 µg/mL (≈ 5.69 µM) | 0.39 µg/mL (≈ 0.71 µM) | 0.39 µg/mL (≈ 0.71 µM) | 3.13 µg/mL (≈ 5.69 µM) | 1.56 µg/mL (≈ 2.84 µM) | 126 µg/mL | 1.8 h | 343 µg·h/mL | 1000 to 1500 mg/kg
CO/N=C(\C(=O)NC1C(=O)N2C(C(=O)O)=C(Sc3nc4ccccc4o3)CSC12)c1csc(N)n1 (centres unmarked) [Compound C, 7-{(Z)-2-(2-aminothiazol-4-yl)-2-methoxy-iminoacetamido}-3-(benzoxazol-2-yl)thio-3-cephem-4-carboxylic acid] | – | – | – | – | – | – | – | – | 141 µg/mL | 2.1 h | 442 µg·h/mL | –
